The test system of one experiment is 5α-reductase. Briefly: 5α-reductase activity (DHT/testosterone ratio) in dermal papilla cells, C14 testosterone metabolism. The experiment is classed as cell-based, human. Conditions: 10 μM, incubation 24 h+24 h.
Another experiment deals with JAK1/2-STAT3 pathway. Put plainly: IL-6-induced STAT3 phosphorylation in follicular keratinocytes of the outer root sheath (ORS). It is filed as cell-based, human. The conditions noted are these: 5 μM, 1 h pre-treatment, IL-6 100 ng/ml 15 minutes.

Each structure is given as a SMILES string.

As to `CC(C)(C)NC(=O)[C@H]1CC[C@H]2[C@@H]3CC[C@H]4NC(=O)C=C[C@]4(C)[C@H]3CC[C@]12C` [Finasteride, finasteride], in the experiment with 5α-reductase, the “% inh (DHT/testosterone ratio, relative to the control condition)” value came out at 94.2% and the “Mean DHT/testosterone ratio (5α-reductase activity)” value stood at 0.02.

Take `N#CC[C@H](C1CCCC1)n1cc(-c2ncnc3[nH]ccc23)cn1` [Ruxolitinib, ruxolitinib]: the “% of STAT phosphorylated, Mean” value in the experiment on JAK1/2-STAT3 pathway is on record as 102%.

(Values after US12186354B2, “Lespedeza capitata extract for use in the field of hair care” (priority 2018, dated 2025).)
